Molecular target: T1, PorB (wt PorB) (Neisseria meningitidis, UniProt M4GGR4)
T1 construct: outer membrane porin, homotrimer, purified in LDAO and inserted in planar lipid bilayers or liposomes; about 340 residues; expression as described previously
Assay: single-channel electrophysiology, planar black lipid membrane, JULES idealization
Type: binding
Conditions: +80 mV, 1 M KCl, 10 mM HEPES, pH 7.5; DPhPC/cholesterol 9:1; pore block

T1 sequence (M4GGR4 entry or part of it): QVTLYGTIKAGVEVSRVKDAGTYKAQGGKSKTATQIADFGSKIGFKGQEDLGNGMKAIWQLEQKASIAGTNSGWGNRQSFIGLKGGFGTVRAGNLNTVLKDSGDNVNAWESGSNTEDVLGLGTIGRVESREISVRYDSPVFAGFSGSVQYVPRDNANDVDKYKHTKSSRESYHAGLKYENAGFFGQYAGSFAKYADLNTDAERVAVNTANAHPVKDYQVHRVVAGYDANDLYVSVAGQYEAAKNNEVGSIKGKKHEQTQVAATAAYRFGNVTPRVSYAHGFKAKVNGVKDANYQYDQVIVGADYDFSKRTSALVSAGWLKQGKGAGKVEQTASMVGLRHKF

Structure (SMILES): CC1(C)S[C@@H]2[C@H](NC(=O)[C@H](N)c3ccccc3)C(=O)N2[C@H]1C(=O)O [ampicillin]
- residence time τR: 35 ± 1 μs

Reference: paper PMC8047873, “An antibiotic-resistance conferring mutation in a neisserial porin: Structure, ion flux, and ampicillin binding” (Biochimica et Biophysica Acta. Biomembranes, 2021)
